Assay results as given in US12171230B2, “Herbicidal compositions” (Bayer Aktiengesellschaft, priority 2018, dated 2024).

What was measured:
Viola arvensis = experiment: Post-emergence herbicidal action against Viola arvensis; type: in vivo; settings: 100 g of a.i./ha
Protocol: When the observed efficacies exceed the formal sum total of the values of the tests with individual applications, they also exceed the expected value according to Colby, which is calculated using the formula below and is likewise regarded as an indication of synergism (cf. S. R. Colby; in Weeds 15 (1967) p. 20 to 22): E^C=A+B−([…])
Here: • A=efficacy of the active compound (A) in % at an application rate of a g a.i./ha; • B=efficacy of the active compound (B) in % at an application rate of b g a.i./ha; • E^C=expected value of the effect of the combination (A)+(B) in % at the combined application rate a+b g a.i./ha.
Seeds or rhizome pieces of mono- and dicotyledonous weeds are placed in sandy loam in pots, covered with soil and grown in a greenhouse under good growth conditions (temperature, air humidity, water supply). Three weeks after sowing, the test plants were treated at the three-leaf stage with the compositions according to the invention. The compositions according to the invention formulated as spray powders or as emulsion concentrates were sprayed onto the green plant parts in various dosages with an application rate of 300 to 800 l/ha of water (equivalent). […] The compositions according to the invention also have good post-emergence herbicidal activity against a broad spectrum of economically important gramineous and broadleaf weeds.

Alopecurus myosuroides = experiment: Post-emergence herbicidal action against Alopecurus myosuroides; type: in vivo

C=C[C@]1(C(=O)N[C@H]2CO[C@@H](C(=O)OC)C2)CC(c2cc(F)cc(F)c2)=NO1 (relative stereo) [Compound A3, methyl rel-(2R,4R)-4-[[(5S)-3-(3,5-difluorophenyl)-5-vinyl-4H-isoxazole-5-carbonyl]amino]tetrahydrofuran-2-carboxylate]
Herbicidal action 43 DAT [%] against Viola arvensis (Viola arvensis): 50% | Herbicidal action (Alopecurus myosuroides; 14 DAT, 1 g a.i./ha): 30% | Herbicidal action (Alopecurus myosuroides; 14 DAT, 4 g a.i./ha): 75% | Herbicidal action (Alopecurus myosuroides; 28 DAT, 1 g a.i./ha): 10% | Herbicidal action (Alopecurus myosuroides; 28 DAT, 4 g a.i./ha): 60%
